According to ChEMBL document CHEMBL4130577, “Platanic acid: A new scaffold for the synthesis of cytotoxic agents” (Eur J Med Chem, 2018):
pEC50: −log10 of the molar value. The source made the active and inactive calls. No cut-off for these calls is given here.

System: A2780
Assay: Induction of apoptosis in human A2780 cells assessed as necrotic cells at 5 uM after 24 hrs by Annexin V-FITC/propidium iodide staining based flow cytometry (reference value: 1.1%)
Type: functional
Settings: not given

Compound | Activity [%]
CC(=O)[C@@H]1CC[C@]2(C(=O)NCCN3CCCC3)CC[C@]3(C)[C@H](CC[C@@H]4[C@@]5(C)CC[C@H](O)C(C)(C)[C@@H]5CC[C@]43C)[C@@H]12 | 4.2

System: HT-29
Assay: cells
Settings: Homo sapiens, HT-29, 96 h
Description: Cytotoxicity against human HT-29 cells after 96 hrs by SRB assay

Compound | pEC50
COC(=O)[C@]12CC[C@@H]([C@@H](C)N)[C@@H]1[C@H]1CC[C@@H]3[C@@]4(C)CC[C@H](OC(C)=O)C(C)(C)[C@@H]4CC[C@@]3(C)[C@]1(C)CC2 | 5.20
COC(=O)[C@]12CC[C@@H]([C@H](C)NC(C)=O)[C@@H]1[C@H]1CC[C@@H]3[C@@]4(C)CC[C@H](OC(C)=O)C(C)(C)[C@@H]4CC[C@@]3(C)[C@]1(C)CC2 | 4.61
CC(=O)O[C@H]1CC[C@]2(C)[C@H]3CC[C@@H]4[C@H]5[C@H](/C(C)=N/O)CC[C@]5(C(=O)OCc5ccccc5)CC[C@@]4(C)[C@]3(C)CC[C@H]2C1(C)C | 4.91
CC(=O)[C@@H]1CC[C@]2(C(=O)NCCN3CCCC3)CC[C@]3(C)[C@H](CC[C@@H]4[C@@]5(C)CC[C@H](O)C(C)(C)[C@@H]5CC[C@]43C)[C@@H]12 | 5.55

System: A2780
Assay: Induction of apoptosis in human A2780 cells assessed as late apoptotic cells at 8 uM after 24 hrs by Annexin V-FITC/propidium iodide staining based flow cytometry (reference value: 6.6%)
Type: functional
Settings: not given

Compound | Activity [%]
COC(=O)[C@]12CC[C@@H]([C@@H](C)N)[C@@H]1[C@H]1CC[C@@H]3[C@@]4(C)CC[C@H](OC(C)=O)C(C)(C)[C@@H]4CC[C@@]3(C)[C@]1(C)CC2 | 16.6

System: A2780
Assay: Cell cycle arrest in human A2780 cells at 5 uM after 24 hrs by propidium iodide staining based flow cytometry
Type: functional
Settings: not given

Compound | Activity
CC(=O)[C@@H]1CC[C@]2(C(=O)NCCN3CCCC3)CC[C@]3(C)[C@H](CC[C@@H]4[C@@]5(C)CC[C@H](O)C(C)(C)[C@@H]5CC[C@]43C)[C@@H]12 | inactive

System: A2780
Assay: Cytotoxicity against human A2780 cells assessed as morphological changes at 8 uM after 24 hrs by acridine orange/propidium iodide staining based fluorescence microscopic method
Type: functional, cell-based
Settings: not given

Compound | Activity
COC(=O)[C@]12CC[C@@H]([C@@H](C)N)[C@@H]1[C@H]1CC[C@@H]3[C@@]4(C)CC[C@H](OC(C)=O)C(C)(C)[C@@H]4CC[C@@]3(C)[C@]1(C)CC2 | Active

System: A2780
Assay: Induction of apoptosis in human A2780 cells assessed as increase in caspase-3 activity at 8 uM after 24 hrs by flow cytometry
Type: functional, cell-based
Settings: not given

Compound | Activity
COC(=O)[C@]12CC[C@@H]([C@@H](C)N)[C@@H]1[C@H]1CC[C@@H]3[C@@]4(C)CC[C@H](OC(C)=O)C(C)(C)[C@@H]4CC[C@@]3(C)[C@]1(C)CC2 | Active

System: A2780
Assay: Induction of apoptosis in human A2780 cells assessed as early apoptotic cells at 5 uM after 24 hrs by Annexin V-FITC/propidium iodide staining based flow cytometry (reference value: 3.5%)
Type: functional
Settings: not given

Compound | Activity [%]
CC(=O)[C@@H]1CC[C@]2(C(=O)NCCN3CCCC3)CC[C@]3(C)[C@H](CC[C@@H]4[C@@]5(C)CC[C@H](O)C(C)(C)[C@@H]5CC[C@]43C)[C@@H]12 | 7.1

System: A2780
Assay: Induction of apoptosis in human A2780 cells assessed as necrotic cells at 8 uM after 24 hrs by Annexin V-FITC/propidium iodide staining based flow cytometry (reference value: 1.1%)
Type: functional
Settings: not given

Compound | Activity [%]
COC(=O)[C@]12CC[C@@H]([C@@H](C)N)[C@@H]1[C@H]1CC[C@@H]3[C@@]4(C)CC[C@H](OC(C)=O)C(C)(C)[C@@H]4CC[C@@]3(C)[C@]1(C)CC2 | 1.4

System: A2780
Assay: Cytotoxicity against human A2780 cells assessed as morphological changes at 5 uM after 24 hrs by acridine orange/propidium iodide staining based fluorescence microscopic method
Type: functional, cell-based
Settings: not given

Compound | Activity
CC(=O)[C@@H]1CC[C@]2(C(=O)NCCN3CCCC3)CC[C@]3(C)[C@H](CC[C@@H]4[C@@]5(C)CC[C@H](O)C(C)(C)[C@@H]5CC[C@]43C)[C@@H]12 | Active

System: A2780
Assay: Cytotoxicity against human A2780 cells after 96 hrs by SRB assay
Type: functional, cell-based
Settings: A2780, 96 h

Compound | pEC50
COC(=O)[C@]12CC[C@@H]([C@@H](C)N)[C@@H]1[C@H]1CC[C@@H]3[C@@]4(C)CC[C@H](OC(C)=O)C(C)(C)[C@@H]4CC[C@@]3(C)[C@]1(C)CC2 | 5.33
COC(=O)[C@]12CC[C@@H]([C@H](C)NC(C)=O)[C@@H]1[C@H]1CC[C@@H]3[C@@]4(C)CC[C@H](OC(C)=O)C(C)(C)[C@@H]4CC[C@@]3(C)[C@]1(C)CC2 | 4.60
CC(=O)O[C@H]1CC[C@]2(C)[C@H]3CC[C@@H]4[C@H]5[C@H](/C(C)=N/O)CC[C@]5(C(=O)OCc5ccccc5)CC[C@@]4(C)[C@]3(C)CC[C@H]2C1(C)C | 5.21
CC(=O)[C@@H]1CC[C@]2(C(=O)NCCN3CCCC3)CC[C@]3(C)[C@H](CC[C@@H]4[C@@]5(C)CC[C@H](O)C(C)(C)[C@@H]5CC[C@]43C)[C@@H]12 | 5.66

System: A2780
Assay: Induction of apoptosis in human A2780 cells assessed as late apoptotic cells at 5 uM after 24 hrs by Annexin V-FITC/propidium iodide staining based flow cytometry (reference value: 6.6%)
Type: functional
Settings: not given

Compound | Activity [%]
CC(=O)[C@@H]1CC[C@]2(C(=O)NCCN3CCCC3)CC[C@]3(C)[C@H](CC[C@@H]4[C@@]5(C)CC[C@H](O)C(C)(C)[C@@H]5CC[C@]43C)[C@@H]12 | 47.4

System: A2780
Assay: Induction of apoptosis in human A2780 cells assessed as live cells at 5 uM after 24 hrs by Annexin V-FITC/propidium iodide staining based flow cytometry (reference value: 88.7%)
Type: functional
Settings: not given

Compound | Activity [%]
CC(=O)[C@@H]1CC[C@]2(C(=O)NCCN3CCCC3)CC[C@]3(C)[C@H](CC[C@@H]4[C@@]5(C)CC[C@H](O)C(C)(C)[C@@H]5CC[C@]43C)[C@@H]12 | 41.3

System: 518A2
Assay: Cytotoxicity against human 518A2 cells after 96 hrs by SRB assay
Type: functional, cell-based
Settings: 518A2, 96 h

Compound | pEC50
COC(=O)[C@]12CC[C@@H]([C@@H](C)N)[C@@H]1[C@H]1CC[C@@H]3[C@@]4(C)CC[C@H](OC(C)=O)C(C)(C)[C@@H]4CC[C@@]3(C)[C@]1(C)CC2 | 5.39
COC(=O)[C@]12CC[C@@H]([C@H](C)NC(C)=O)[C@@H]1[C@H]1CC[C@@H]3[C@@]4(C)CC[C@H](OC(C)=O)C(C)(C)[C@@H]4CC[C@@]3(C)[C@]1(C)CC2 | 4.52
CC(=O)O[C@H]1CC[C@]2(C)[C@H]3CC[C@@H]4[C@H]5[C@H](/C(C)=N/O)CC[C@]5(C(=O)OCc5ccccc5)CC[C@@]4(C)[C@]3(C)CC[C@H]2C1(C)C | 5.05
CC(=O)[C@@H]1CC[C@]2(C(=O)NCCN3CCCC3)CC[C@]3(C)[C@H](CC[C@@H]4[C@@]5(C)CC[C@H](O)C(C)(C)[C@@H]5CC[C@]43C)[C@@H]12 | 5.60

System: A2780
Assay: Induction of apoptosis in human A2780 cells assessed as increase in caspase-3 activity at 5 uM after 24 hrs by flow cytometry
Type: functional, cell-based
Settings: not given

Compound | Activity
CC(=O)[C@@H]1CC[C@]2(C(=O)NCCN3CCCC3)CC[C@]3(C)[C@H](CC[C@@H]4[C@@]5(C)CC[C@H](O)C(C)(C)[C@@H]5CC[C@]43C)[C@@H]12 | Active

System: A549
Assay: Cytotoxicity against human A549 cells after 96 hrs by SRB assay
Type: functional, cell-based
Settings: A549, 96 h

Compound | pEC50
COC(=O)[C@]12CC[C@@H]([C@@H](C)N)[C@@H]1[C@H]1CC[C@@H]3[C@@]4(C)CC[C@H](OC(C)=O)C(C)(C)[C@@H]4CC[C@@]3(C)[C@]1(C)CC2 | 5.28
COC(=O)[C@]12CC[C@@H]([C@H](C)NC(C)=O)[C@@H]1[C@H]1CC[C@@H]3[C@@]4(C)CC[C@H](OC(C)=O)C(C)(C)[C@@H]4CC[C@@]3(C)[C@]1(C)CC2 | 4.59
CC(=O)O[C@H]1CC[C@]2(C)[C@H]3CC[C@@H]4[C@H]5[C@H](/C(C)=N/O)CC[C@]5(C(=O)OCc5ccccc5)CC[C@@]4(C)[C@]3(C)CC[C@H]2C1(C)C | 5.10
CC(=O)[C@@H]1CC[C@]2(C(=O)NCCN3CCCC3)CC[C@]3(C)[C@H](CC[C@@H]4[C@@]5(C)CC[C@H](O)C(C)(C)[C@@H]5CC[C@]43C)[C@@H]12 | 5.64

System: A2780
Assay: Induction of apoptosis in human A2780 cells assessed as live cells at 8 uM after 24 hrs by Annexin V-FITC/propidium iodide staining based flow cytometry (reference value: 88.7%)
Type: functional
Settings: not given

Compound | Activity [%]
COC(=O)[C@]12CC[C@@H]([C@@H](C)N)[C@@H]1[C@H]1CC[C@@H]3[C@@]4(C)CC[C@H](OC(C)=O)C(C)(C)[C@@H]4CC[C@@]3(C)[C@]1(C)CC2 | 58.1

System: NIH3T3
Assay: Cytotoxicity against mouse NIH/3T3 cells after 96 hrs by SRB assay
Type: cell-based
Settings: NIH3T3, 96 h

Compound | pEC50
COC(=O)[C@]12CC[C@@H]([C@@H](C)N)[C@@H]1[C@H]1CC[C@@H]3[C@@]4(C)CC[C@H](OC(C)=O)C(C)(C)[C@@H]4CC[C@@]3(C)[C@]1(C)CC2 | 5.25
COC(=O)[C@]12CC[C@@H]([C@H](C)NC(C)=O)[C@@H]1[C@H]1CC[C@@H]3[C@@]4(C)CC[C@H](OC(C)=O)C(C)(C)[C@@H]4CC[C@@]3(C)[C@]1(C)CC2 | 4.71
CC(=O)O[C@H]1CC[C@]2(C)[C@H]3CC[C@@H]4[C@H]5[C@H](/C(C)=N/O)CC[C@]5(C(=O)OCc5ccccc5)CC[C@@]4(C)[C@]3(C)CC[C@H]2C1(C)C | 5.21
CC(=O)[C@@H]1CC[C@]2(C(=O)NCCN3CCCC3)CC[C@]3(C)[C@H](CC[C@@H]4[C@@]5(C)CC[C@H](O)C(C)(C)[C@@H]5CC[C@]43C)[C@@H]12 | 5.55

System: A2780
Assay: Cell cycle arrest in human A2780 cells at 8 uM after 24 hrs by propidium iodide staining based flow cytometry
Type: functional
Settings: not given

Compound | Activity
COC(=O)[C@]12CC[C@@H]([C@@H](C)N)[C@@H]1[C@H]1CC[C@@H]3[C@@]4(C)CC[C@H](OC(C)=O)C(C)(C)[C@@H]4CC[C@@]3(C)[C@]1(C)CC2 | inactive

System: MCF7
Assay: Cytotoxicity against human MCF7 cells after 96 hrs by SRB assay
Type: functional, cell-based
Settings: MCF7, 96 h

Compound | pEC50
COC(=O)[C@]12CC[C@@H]([C@@H](C)N)[C@@H]1[C@H]1CC[C@@H]3[C@@]4(C)CC[C@H](OC(C)=O)C(C)(C)[C@@H]4CC[C@@]3(C)[C@]1(C)CC2 | 5.29
COC(=O)[C@]12CC[C@@H]([C@H](C)NC(C)=O)[C@@H]1[C@H]1CC[C@@H]3[C@@]4(C)CC[C@H](OC(C)=O)C(C)(C)[C@@H]4CC[C@@]3(C)[C@]1(C)CC2 | 4.75
CC(=O)O[C@H]1CC[C@]2(C)[C@H]3CC[C@@H]4[C@H]5[C@H](/C(C)=N/O)CC[C@]5(C(=O)OCc5ccccc5)CC[C@@]4(C)[C@]3(C)CC[C@H]2C1(C)C | 5.17
CC(=O)[C@@H]1CC[C@]2(C(=O)NCCN3CCCC3)CC[C@]3(C)[C@H](CC[C@@H]4[C@@]5(C)CC[C@H](O)C(C)(C)[C@@H]5CC[C@]43C)[C@@H]12 | 5.68

System: A2780
Assay: Induction of apoptosis in human A2780 cells assessed as early apoptotic cells at 8 uM after 24 hrs by Annexin V-FITC/propidium iodide staining based flow cytometry (reference value: 3.5%)
Type: functional
Settings: not given

Compound | Activity [%]
COC(=O)[C@]12CC[C@@H]([C@@H](C)N)[C@@H]1[C@H]1CC[C@@H]3[C@@]4(C)CC[C@H](OC(C)=O)C(C)(C)[C@@H]4CC[C@@]3(C)[C@]1(C)CC2 | 23.7
